Experimental data taken from US12306194B2, “Reagent for fluorescence imaging of lipid droplets in cell and tissue” (NATIONAL UNIVERSITY CORPORATION GUNMA UNIVERSITY, priority 2019, dated 2025).
Several values for one entry are separate records, joined by “and”; a condition that tells them apart may be missing. Equal entries are not always repeated.

Assays:
[1] = Solubility / precipitation in water (physiological saline); type: physicochemical
[2] = tested on: adipose tissue and lipid droplets; assay: Fluorescence imaging of adipose tissues and lipid droplets in a mouse; type: in vivo, mouse (BALB/cAJcl); conditions: 50 nmol
Protocol: Fluorescence imaging of lipid droplets in a body tissue, and of an adipose tissue, using PC6S is described below. […] Therefore, PC6S cannot be administered to mice. In view of this, 5 mM stock solution was added (at 10% in terms of the volume ratio) to physiological saline supplemented with 10% bovine serum albumin. […] Regarding administration of MNs-NB, a stock solution in DMSO is directly administered to mice. Since administration of DMSO may cause death of mice from shock, the administration method in the present invention is thought to be a safer method. Here, 100 to 200 μL of 500 μM solution (50 to 100 nmol) was administered to the tail vein of a mouse under anesthesia, and a fluorescence imaging experiment was carried out using a confocal laser microscope (excitation wavelength, 488 nm; monitoring wavelength, 510 to 560 nm). In the present experiment, a microscope capable of acquiring fluorescence lifetime images as well as fluorescence intensity images (FLIM: fluorescence lifetime imaging microscope) (Simple-Tau-150-DX; Becker & Hickl) was used. The animal experiment was carried out in accordance with the animal experiment safety regulations in Gunma University.
In an individual, various adipose tissues and lipid droplets are present. Their imaging was carried out using PC6S. […]

[3] = Measurement of maximum absorption wavelength, maximum fluorescence wavelength and fluorescence quantum yield in solvents; type: physicochemical
Protocol: Using a luminescent quantum yield measurement apparatus ([…]-01, manufactured by Hamamatsu Photonics K.K.), the maximum absorption wavelength (λabs/nm), the maximum fluorescence wavelength (λflu/nm), and the fluorescence quantum yield (Φf) of the compound in each solvent were measured. The absorption spectrum was measured using an ultraviolet and visible spectrophotometer (Ubest-550, manufactured by JASCO Corporation), and the fluorescence emission spectrum was measured using a fluorescence spectrophotometer (F-7000, manufactured by Hitachi, Ltd.)

CCN(CC)c1ccc2cc3cc(-c4nc5ccccc5s4)c(=O)oc3cc2c1 [PC6S, 3-(Benzo[d]thiazol-2-yl)-8-(diethylamino)-2H-benzo[g]chromen-2-one]
solubility in water (physiological saline) [1]: remarkably low solubility
precipitation ([1]; 5 mM stock solution added at 10% volume ratio to physiological saline supplemented with 10% bovine serum albumin): precipitation of PC6S could be suppressed
precipitation ([1]; 5 mM stock solution in DMSO added at 10% volume ratio to physiological saline): precipitation of PC6S occurs
fluorescence imaging of kidney [2]: small lipid droplets distributed in tubular cells could be imaged
fluorescence imaging of subcutaneous, abdominal, pericardial adipose tissue, skeletal muscle, cardiac muscle, kidney [2]: Fluorescence derived from PC6S was found from sites containing lipid accumulated therein
Φf (fluorescence quantum yield) ([3]; in Bu2O (dibutyl ether)): 0.88
λmax abs (maximum absorption wavelength) ([3]; in Bu2O (dibutyl ether)): 468 nm
λmax flu (maximum fluorescence wavelength) ([3]; in Bu2O (dibutyl ether)): 538 nm
Φf (fluorescence quantum yield) ([3]; in DMSO): 0.83
λmax abs (maximum absorption wavelength) ([3]; in DMSO): 504 nm
λmax flu (maximum fluorescence wavelength) ([3]; in DMSO): 642 nm
Φf (fluorescence quantum yield) ([3]; in EtOAc): 0.84
λmax abs (maximum absorption wavelength) ([3]; in EtOAc): 483 nm
λmax flu (maximum fluorescence wavelength) ([3]; in EtOAc): 585 nm
Φf (fluorescence quantum yield) ([3]; in MeCN): 0.80
λmax abs (maximum absorption wavelength) ([3]; in MeCN): 492 nm and 493 nm
λmax flu (maximum fluorescence wavelength) ([3]; in MeCN): 625 nm
fluorescence quantum yield ([3]; in any of the solvents of Table 1): not less than 0.8
Φf (fluorescence quantum yield) ([3]; in n-Hexane): 0.89
λmax abs (maximum absorption wavelength) ([3]; in n-Hexane): 455 nm
λmax flu (maximum fluorescence wavelength) ([3]; in n-Hexane): 498 nm
